# In patent publication US20190070214A1 (priority 2016, published 2019):
# Where “and” joins values, the source holds several entries; their conditions need not be identical. Equal values may be shown once. Positions of bridges follow the written chain, without caps; N, C: chain ends. Non-standard residues stand in square brackets, D forms with d. Residues, ends and D or L forms follow the SMILES beside them. *: point of attachment. Ileψ(thiazoline)Cys = CC[C@H](C)[C@H](N)C1=N[C@H](C(=O)*)CS1; dOrn = NCCC[C@@H](N)C(=O)O
# Experiments:
# Clostridium perfringens = type: in vivo, broiler chicks
# [1] = TNBS-induced colitis, histopathology of colon; details: day 5
# [2] = TNBS-induced colitis, video endoscopy colitis score
# [3] = TNBS-induced colitis, colon length and weight; details: Group 2, prednisolone 1 mg/kg/dose t.i.d.; day 5; individual animals
# [4] = TNBS-induced colitis, body weight
# [5] = Group 2, prednisolone 1 mg/kg/dose t.i.d., mean per animal, scale 0-4 (Table 3)
# [6] = Group 2, prednisolone 1 mg/kg/dose t.i.d., individual animals, scale 0-4 (Table 2)
# [7] = Group 2, prednisolone 1 mg/kg/dose t.i.d. p.o. + TNBS, individual animals
compound,measurement,setting,value
"CC[C@H](C)[C@H](N)C1=N[C@H](C(=O)N[C@@H](CC(C)C)C(=O)N[C@H](CCC(=O)O)C(=O)N[C@H](C(=O)N[C@H]2CCCCNC(=O)[C@H](CC(N)=O)NC(=O)[C@@H](CC(=O)O)NC(=O)[C@H](Cc3cnc[nH]3)NC(=O)[C@@H](Cc3ccccc3)NC(=O)[C@H]([C@@H](C)CC)NC(=O)[C@@H](CCCN)NC2=O)[C@@H](C)CC)CS1 [BMD, bacitracin] ({Ileψ(thiazoline)Cys}-L[dE]IK[dOrn]I[dF]H[dD]N; lactam 4-C)","necrotic enteritis (NE) of the GI tract, figure given for BMD","Clostridium perfringens; BMD positive control in water, P<0.05, meaning of figure unclear",93%
same,mortality normalized to untreated (100%),Clostridium perfringens; total aggregate deaths up to and including day 14,45%
C[C@]12C=CC(=O)C=C1CC[C@@H]1[C@@H]2[C@@H](O)C[C@@]2(C)[C@H]1CC[C@]2(O)C(=O)CO [Prednisolone],Histology Scores Edema,[1]; [5],1.20 (4×) and 0.83 (2×) and 0.50 and 0.67 and 1.40 and 0.80
same,Histology Scores Inflam,[1]; [5],1.60 and 1.40 and 1.00 (3×) and 0.83 (2×) and 0.33 and 0.67 and 0.80
same,Histology Scores Necrosis,[1]; [5],1.00 and 0.80 (3×) and 0.40 and 0.67 and 0.00 and 0.33 and 0.50 and 0.60
same,edema scores vs vehicle control,"[1]; prednisolone, p=0.004",significantly lower
same,sum pathology scores vs vehicle control,"[1]; prednisolone, p=0.007",significantly lower
same,Endo Score Day 3,[2]; [6],2 (4×) and 1 (2×) and 3 and 4 (3×)
same,Endo Score Day 5,[2]; [6],3 (3×) and 2 (5×) and 4 and 1
same,colitis score of representative endoscopy image,"[2]; day 5, prednisolone, scale 0-4, vehicle 3",2
same,mean colitis scores vs vehicle control,"[2]; prednisolone 1 mg/kg/dose t.i.d., day 3 p=0.010, day 5 p=0.027",significantly reduced mean colitis scores
same,Colon Length,[3],8 (3×) and 6.4 and 8.5 and 7.2 (2×) and 7 and 6.5 and 7.5
same,Colon Weight,[3],0.334 and 0.344 and 0.392 and 0.386 and 0.248 and 0.276 and 0.24 and 0.318 and 0.35 and 0.224
same,Animal Weights Day 0,[4]; [7],23.09 and 25.03 and 23.28 and 23.97 and 22.64 and 24.58 and 24.61 and 25.53 and 25.1 and 24.95
same,Animal Weights Day 1,[4]; [7],20.19 and 21.15 and 20.41 and 20.78 and 20.62 and 21.89 and 22.21 and 22.35 (2×) and 22.44
same,Animal Weights Day 2,[4]; [7],19.12 and 20.17 and 19.33 and 19.52 and 20.33 and 20.83 and 22.81 and 21.35 and 22.46 and 23.66
same,Animal Weights Day 3,[4]; [7],18.77 and 19.45 and 18.6 and 19.09 and 22.59 and 21.38 and 23.44 and 21.24 and 23.92 and 24.77
same,Animal Weights Day 4,[4]; [7],18.36 and 19.11 and 19.32 and 18.56 and 22.41 and 21.65 and 23.51 and 22.09 and 23.48 and 23.97
same,Animal Weights Day 5,[4]; [7],19.28 and 20.1 and 21.49 and 19.89 and 22.48 and 22.05 and 24.03 and 23.91 and 24.24 and 24.3
same,Animal Weights Day −1,[4]; [7],23.94 and 25.76 and 24.35 and 24.86 and 24.02 and 25.97 and 26.64 and 26.78 and 27.15 and 27.02
same,average weight loss from starting weight,"[4]; day 2, prednisolone 1 mg/kg/dose t.i.d. p.o.",18.3%
